Results reported in publication PMC11844072, “Novel 5,6-dichlorobenzimidazole derivatives as dual BRAFWT and BRAFV600E inhibitors: design, synthesis, anti-cancer activity and molecular dynamics simulations” (BMC Chemistry, 2025).

Legend:
Assay in all cases: NCI 60 single concentration growth inhibition
Assay type in all cases: cell-based, human
786-0 = conditions: 786-0, Renal cancer
Method: (§1) The synthesized dichlorobenzimidazoles 10a–p were assayed for their influence on divers cancer cell lines according to the method presented in the Additional file A.
(§2) 5. Screening of cytotoxic activity against a panel of sixty human tumor cell lines
(§3) The selected compounds by NCI were evaluated for their anticancer activity in a two-stage process. First, these compounds were screened against the full NCI 60 cell lines panel at a single high dose of 10 µM. Then, the output from the single dose screen is reported as a mean graph. […]
(§4) at five different minimal concentrations.
(§5) Assay protocol. The human tumor cell lines of the cancer screening panel are grown in RPMI 1640 medium containing 5% fetal bovine serum and 2 mM L-glutamine. For a typical screening experiment, cells are inoculated into 96 well microtiter plates in 100 µL at plating densities ranging from 5000 to 40,000 cells/well depending on the doubling time of individual cell lines. After cell inoculation, the microtiter plates are incubated at 37 °C, 5% CO 2, 95% air and 100% relative humidity for 24 h prior to addition of the experimental drugs.
(§6) After 24 h, two plates of each cell line are fixed in situ with TCA, to represent a measurement of the cell population for each cell line at the time of drug addition (Tz). The experimental drugs are solubilized in dimethyl sulfoxide at 400-fold the desired final maximum test concentration and stored frozen prior to use. At the time of drug addition, an aliquot of frozen concentrate is thawed and diluted to twice the desired final maximum test concentration with complete medium containing 50 µg/mL gentamicin. Additional four, 10-fold or ½ log serial dilutions are made to provide a total of five drug concentrations plus control.
(§7) Aliquots of […] of these different drug dilutions are added to the appropriate microtiter wells already containing […] of medium, resulting in the required final drug concentrations.
(§8) Following drug addition, the plates are incubated for an additional 48 h at 37 °C, 5% CO 2, 95% air, and 100% relative humidity. For adherent cells, the assay is terminated by the addition of cold TCA.
(§9) Cells are fixed in situ by the gentle addition of 50 µL of cold 50% (w/v) TCA (final concentration, 10% TCA) and incubated for 60 min at 4 °C. The supernatant is discarded, and the plates are washed five times with tap water and air dried. Sulforhodamine B (SRB) solution ([…]) at 0.4% (w/v) in 1% acetic acid is added to each well, and plates are incubated for 10 min at room temperature. After staining, unbound dye is removed by washing five times with 1% acetic acid and the plates are air dried. Bound stain is subsequently solubilized with 10 mM trizma base, and the absorbance is read on an automated plate reader at a wavelength of 515 nm. For suspension cells, the methodology is […]
(§10) the same except that the assay is terminated by fixing settled cells at the bottom of the wells by gently adding 50 µl of 80% TCA (final concentration, 16% TCA). Using the seven absorbance measurements [time zero, (Tz), control growth, (C), and test growth in the presence of drug at the five concentration levels (Ti)], the percentage growth is calculated at each of the drug concentrations […]
(§11) Percentage growth inhibition is calculated as: [(Ti Tz)/(C–Tz)] x 100 for concentrations for which Ti>/=Tz and [(Ti-Tz)/Tz] x 100 for concentrations for which Ti < Tz.
(§12) Three dose response parameters are calculated for each experimental agent. Growth […]
(§13) concentration resulting in a 50% reduction in the net protein increase (as measured by SRB staining) in control cells during the drug incubation. The drug concentration resulting in total growth inhibition (TGI) is calculated from Ti = Tz. […]
(§14) reduction in the measured protein at the end of the drug treatment as compared to that at the beginning) indicating a net loss of cells following treatment is calculated from [(Ti–Tz)/Tz] x 100 =
(§15) _50. Values are calculated for each of these three parameters if the level of activity is reached; […]

ACHN = conditions: Renal cancer
Method: as §1, §2, §3, §4, §5, §6, §7, §8, §9, §10, §11, §12, §13, §14, §15

CAKI-1 = conditions: CAKI-1, Renal cancer
Method: as §1, §2, §3, §4, §5, §6, §7, §8, §9, §10, §11, §12, §13, §14, §15

CCRF-CEM = conditions: Leukemia
Method: as §1, §2, §3, §4, §5, §6, §7, §8, §9, §10, §11, §12, §13, §14, §15

EKVX = conditions: Non-small cell lung cancer
Method: as §1, §2, §3, §4, §5, §6, §7, §8, §9, §10, §11, §12, §13, §14, §15

HCT-116 = conditions: HCT-116, Colon cancer
Method: as §1, §2, §3, §4, §5, §6, §7, §8, §9, §10, §11, §12, §13, §14, §15

HOP-62 = conditions: HOP-62, Non-small cell lung cancer
Method: as §1, §2, §3, §4, §5, §6, §7, §8, §9, §10, §11, §12, §13, §14, §15

HS 578T = conditions: Breast cancer
Method: as §1, §2, §3, §4, §5, §6, §7, §8, §9, §10, §11, §12, §13, §14, §15

KM12 = conditions: KM12, Colon cancer
Method: as §1, §2, §3, §4, §5, §6, §7, §8, §9, §10, §11, §12, §13, §14, §15

M14 = conditions: M14, Melanoma
Method: as §1, §2, §3, §4, §5, §6, §7, §8, §9, §10, §11, §12, §13, §14, §15

MDA-MB-435 = conditions: MDA-MB-435, Melanoma
Method: as §1, §2, §3, §4, §5, §6, §7, §8, §9, §10, §11, §12, §13, §14, §15

MDA-MB-468 = conditions: MDA-MB-468, Breast cancer
Method: as §1, §2, §3, §4, §5, §6, §7, §8, §9, §10, §11, §12, §13, §14, §15

MOLT-4 = conditions: MOLT-4, Leukemia
Method: as §1, §2, §3, §4, §5, §6, §7, §8, §9, §10, §11, §12, §13, §14, §15

NCI-H23 = conditions: NCI-H23, Non-small cell lung cancer
Method: as §1, §2, §3, §4, §5, §6, §7, §8, §9, §10, §11, §12, §13, §14, §15

OVCAR-5 = conditions: OVCAR-5, Ovarian cancer
Method: as §1, §2, §3, §4, §5, §6, §7, §8, §9, §10, §11, §12, §13, §14, §15

RPMI-8226 = conditions: RPMI-8226, Leukemia
Method: as §1, §2, §3, §4, §5, §6, §7, §8, §9, §10, §11, §12, §13, §14, §15

RXF 393 = conditions: RXF 393, Renal cancer
Method: as §1, §2, §3, §4, §5, §6, §7, §8, §9, §10, §11, §12, §13, §14, §15

SK-OV-3 = conditions: SK-OV-3, Ovarian cancer
Method: as §1, §2, §3, §4, §5, §6, §7, §8, §9, §10, §11, §12, §13, §14, §15

T-47D = conditions: Breast cancer
Method: as §1, §2, §3, §4, §5, §6, §7, §8, §9, §10, §11, §12, §13, §14, §15

UACC-257 = conditions: UACC-257, Melanoma
Method: as §1, §2, §3, §4, §5, §6, §7, §8, §9, §10, §11, §12, §13, §14, §15

UACC-62 = conditions: UACC-62, Melanoma
Method: as §1, §2, §3, §4, §5, §6, §7, §8, §9, §10, §11, §12, §13, §14, §15

What does the source list for “3-(4-((2-(2-(5,6-Dichloro-2-(4-methoxyphenyl)-1H-benzo[d]imidazol-1-yl)acetyl)hydrazono)methyl)phenoxy)propanoic acid [Compound 10i]”?
GI% (786-0; 10 μM): 5.33%; GI% (ACHN; 10 μM): 5.11%; GI% (CAKI-1; 10 μM): 10.19%; GI% (CCRF-CEM; 10 μM): 10.70%; GI% (EKVX; 10 μM): 20.53%; GI% (HCT-116; 10 μM): 11.45%; GI% (HOP-62; 10 μM): – (GI% < 5%); GI% (HS 578T; 10 μM): – (GI% < 5%); GI% (KM12; 10 μM): – (GI% < 5%); GI% (M14; 10 μM): – (GI% < 5%); GI% (MDA-MB-435; 10 μM): 7.59%; GI% (MDA-MB-468; 10 μM): 10.83%; GI% (MOLT-4; 10 μM): – (GI% < 5%); GI% (NCI-H23; 10 μM): 13.85%; GI% (OVCAR-5; 10 μM): – (GI% < 5%); GI% (RPMI-8226; 10 μM): – (GI% < 5%); GI% (RXF 393; 10 μM): – (GI% < 5%); GI% (SK-OV-3; 10 μM): 6.27%; GI% (T-47D; 10 μM): 27.22%; GI% (UACC-257; 10 μM): – (GI% < 5%); GI% (UACC-62; 10 μM): 10.17%

What does the source list for `CCOC(=O)C(C)Oc1ccc(C=NNC(=O)Cn2c(-c3ccc(OC)cc3)nc3cc(Cl)c(Cl)cc32)cc1` (stereo not drawn) [Compound 10j, Ethyl-2-(4-((2-(2-(5,6-dichloro-2-(4-methoxyphenyl)-1H-benzo[d]imidazol-1-yl)acetyl) hydrazono)methyl)phenoxy)propanoate]?
inhibition at 10 µM (786-0; Homo sapiens, read-out: GI%): 11.3%; inhibition at 10 µM (ACHN; Homo sapiens, read-out: GI%): 18%; inhibition at 10 µM (CAKI-1; Homo sapiens, read-out: GI%): 9.1%; inhibition at 10 µM (CCRF-CEM; Homo sapiens, read-out: GI%): 25.8%; inhibition at 10 µM (EKVX; Homo sapiens, read-out: GI%): 21.7%; inhibition at 10 µM (HCT-116; Homo sapiens, read-out: GI%): 32.3%; inhibition at 10 µM (HOP-62; Homo sapiens, read-out: GI%): < 5%; inhibition at 10 µM (HS 578T; Homo sapiens, read-out: GI%): < 5%; inhibition at 10 µM (KM12; Homo sapiens, read-out: GI%): < 5%; inhibition at 10 µM (M14; Homo sapiens, read-out: GI%): 9.09%; inhibition at 10 µM (MDA-MB-435; Homo sapiens, read-out: GI%): 24.8%; inhibition at 10 µM (MDA-MB-468; Homo sapiens, read-out: GI%): 43.9%; inhibition at 10 µM (MOLT-4; Homo sapiens, read-out: GI%): 53.2%; inhibition at 10 µM (NCI-H23; Homo sapiens, read-out: GI%): 20.8%; inhibition at 10 µM (OVCAR-5; Homo sapiens, read-out: GI%): < 5%; inhibition at 10 µM (RPMI-8226; Homo sapiens, read-out: GI%): 40.2%; inhibition at 10 µM (RXF 393; Homo sapiens, read-out: GI%): 43.7%; inhibition at 10 µM (SK-OV-3; Homo sapiens, read-out: GI%): 5.5%; inhibition at 10 µM (T-47D; Homo sapiens, T47D, read-out: GI%): 72.8%; inhibition at 10 µM (UACC-257; Homo sapiens, read-out: GI%): < 5%; inhibition at 10 µM (UACC-62; Homo sapiens, read-out: GI%): 20.1%
